From ChEMBL document CHEMBL5715260, “Selectivity Literature for EUbOPEN Chemogenomic Library” (2024)
One block for each molecule: values may come before it.

Legend:
[1] = target: T1, Hepatocyte nuclear factor 4-alpha (Homo sapiens) (UniProt P41235); experiment: Selectivity interaction (Reporter gene assay) EUB0000576a HNF4A; parameters: recommended concentration 1 uM
T1 sequence (whole entry): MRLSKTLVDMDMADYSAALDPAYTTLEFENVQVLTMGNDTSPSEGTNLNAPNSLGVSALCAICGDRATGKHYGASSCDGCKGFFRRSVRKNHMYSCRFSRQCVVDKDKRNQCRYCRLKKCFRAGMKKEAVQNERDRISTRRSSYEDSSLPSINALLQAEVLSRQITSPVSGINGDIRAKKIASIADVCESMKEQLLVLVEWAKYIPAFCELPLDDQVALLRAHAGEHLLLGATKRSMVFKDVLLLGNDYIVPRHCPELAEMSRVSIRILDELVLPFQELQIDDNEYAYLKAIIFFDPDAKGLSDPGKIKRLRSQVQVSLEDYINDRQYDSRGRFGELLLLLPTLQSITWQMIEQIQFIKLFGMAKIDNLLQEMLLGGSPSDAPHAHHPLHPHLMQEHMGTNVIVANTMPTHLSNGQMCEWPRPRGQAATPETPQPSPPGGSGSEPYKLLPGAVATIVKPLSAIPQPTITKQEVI

[2] = target: T2, Nuclear receptor subfamily 2 group C member 1 (Homo sapiens) (UniProt P13056); experiment: Selectivity interaction (Reporter gene assay) EUB0000576a NR2C1; parameters: recommended concentration 1 uM
T2 sequence (whole entry): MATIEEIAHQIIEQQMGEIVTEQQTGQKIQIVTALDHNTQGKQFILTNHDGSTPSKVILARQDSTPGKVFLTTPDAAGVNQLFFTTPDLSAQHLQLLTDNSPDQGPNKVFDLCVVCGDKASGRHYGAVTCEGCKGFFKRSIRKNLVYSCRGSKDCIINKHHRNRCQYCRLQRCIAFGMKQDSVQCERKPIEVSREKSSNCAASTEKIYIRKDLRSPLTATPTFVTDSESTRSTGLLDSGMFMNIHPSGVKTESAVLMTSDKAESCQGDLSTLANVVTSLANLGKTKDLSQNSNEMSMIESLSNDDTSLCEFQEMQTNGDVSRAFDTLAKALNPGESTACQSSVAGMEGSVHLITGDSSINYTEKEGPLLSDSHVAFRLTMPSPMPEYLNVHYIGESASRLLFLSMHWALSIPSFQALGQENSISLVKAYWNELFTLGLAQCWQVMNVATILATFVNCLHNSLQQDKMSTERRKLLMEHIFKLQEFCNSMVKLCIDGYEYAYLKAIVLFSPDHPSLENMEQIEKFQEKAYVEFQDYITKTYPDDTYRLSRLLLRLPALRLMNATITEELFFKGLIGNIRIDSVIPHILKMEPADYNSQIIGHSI

[3] = target: Nuclear receptor subfamily 2 group E member 1 (Homo sapiens) (UniProt Q9Y466); experiment: Selectivity interaction (Reporter gene assay) EUB0000576a NR2E1; parameters: recommended concentration 1 uM
[4] = target: Nuclear receptor subfamily 4immunitygroup A member 1 (Homo sapiens) (UniProt P22736); experiment: Selectivity interaction (Reporter gene assay) EUB0000576a NR4A1; parameters: recommended concentration 1 uM
[5] = target: Steroidogenic factor 1 (Homo sapiens) (UniProt Q13285); experiment: Selectivity interaction (Reporter gene assay) EUB0000576a NR5A1; parameters: recommended concentration 1 uM
[6] = target: T3, Alpha trans-inducing protein (Human alphaherpesvirus 1) (UniProt A0A5J6DW59); experiment: Selectivity interaction (Reporter gene assay) EUB0000576a UL48; parameters: recommended concentration 1 uM
[7] = target: T4, Retinoic acid receptor RXR-alpha (Homo sapiens) (UniProt P19793); experiment: Selectivity interaction (Reporter gene assay) EUB0000576a RXRA; parameters: recommended concentration 1 uM; conditions: reference bexarotene 1 uM, Selectivity number of off-targets 0.0, Selectivity number of targets 1.0, Source Knowledge inhouse
T4 sequence (whole entry): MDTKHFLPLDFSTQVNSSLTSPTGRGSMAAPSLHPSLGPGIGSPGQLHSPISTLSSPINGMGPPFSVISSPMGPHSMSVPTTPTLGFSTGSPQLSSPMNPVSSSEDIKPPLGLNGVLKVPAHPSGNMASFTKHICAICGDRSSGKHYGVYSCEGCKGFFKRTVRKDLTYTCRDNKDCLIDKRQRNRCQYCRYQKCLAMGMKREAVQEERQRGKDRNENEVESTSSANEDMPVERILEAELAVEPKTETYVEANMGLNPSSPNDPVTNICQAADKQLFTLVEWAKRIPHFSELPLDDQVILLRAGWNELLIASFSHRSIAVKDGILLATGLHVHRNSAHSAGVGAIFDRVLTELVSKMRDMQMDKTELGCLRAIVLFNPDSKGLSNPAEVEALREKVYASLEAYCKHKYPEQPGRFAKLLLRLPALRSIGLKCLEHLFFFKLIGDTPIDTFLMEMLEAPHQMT

[8] = target: T5, Peroxisome proliferator-activated receptor gamma (Homo sapiens) (UniProt P37231); experiment: Selectivity interaction (Reporter gene assay) EUB0000581a PPARG; parameters: recommended concentration 1 uM; conditions: screened at recom. conc., Selectivity number of off-targets 1.0, Selectivity number of targets 19.0, Source Knowledge inhouse
T5 sequence (whole entry): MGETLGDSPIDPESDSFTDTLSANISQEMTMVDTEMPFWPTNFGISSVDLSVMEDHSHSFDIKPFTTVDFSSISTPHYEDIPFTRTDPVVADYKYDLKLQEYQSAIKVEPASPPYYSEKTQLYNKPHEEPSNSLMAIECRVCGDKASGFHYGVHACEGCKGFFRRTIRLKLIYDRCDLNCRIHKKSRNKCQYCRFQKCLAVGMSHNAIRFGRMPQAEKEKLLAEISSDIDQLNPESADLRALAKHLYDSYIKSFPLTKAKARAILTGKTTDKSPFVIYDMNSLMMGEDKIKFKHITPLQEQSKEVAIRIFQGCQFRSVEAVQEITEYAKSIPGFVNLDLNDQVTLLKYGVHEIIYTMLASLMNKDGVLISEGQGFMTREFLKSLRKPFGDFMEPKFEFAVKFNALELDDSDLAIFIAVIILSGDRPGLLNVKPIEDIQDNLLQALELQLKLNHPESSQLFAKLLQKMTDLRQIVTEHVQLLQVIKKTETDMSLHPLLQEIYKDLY

[9] = target: T1, Hepatocyte nuclear factor 4-alpha (Homo sapiens); experiment: Selectivity interaction (Reporter gene assay) EUB0000581a HNF4A; parameters: recommended concentration 1 uM
[10] = target: T2, Nuclear receptor subfamily 2 group C member 1 (Homo sapiens); experiment: Selectivity interaction (Reporter gene assay) EUB0000581a NR2C1; parameters: recommended concentration 1 uM
[11] = target: Nuclear receptor subfamily 2 group E member 1 (Homo sapiens) (UniProt Q9Y466); experiment: Selectivity interaction (Reporter gene assay) EUB0000581a NR2E1; parameters: recommended concentration 1 uM
[12] = target: Nuclear receptor subfamily 4immunitygroup A member 1 (Homo sapiens) (UniProt P22736); experiment: Selectivity interaction (Reporter gene assay) EUB0000581a NR4A1; parameters: recommended concentration 1 uM
[13] = target: Steroidogenic factor 1 (Homo sapiens) (UniProt Q13285); experiment: Selectivity interaction (Reporter gene assay) EUB0000581a NR5A1; parameters: recommended concentration 1 uM
[14] = target: T3, Alpha trans-inducing protein (Human alphaherpesvirus 1); experiment: Selectivity interaction (Reporter gene assay) EUB0000581a UL48; parameters: recommended concentration 1 uM
[15] = target: T4, Retinoic acid receptor RXR-alpha (Homo sapiens); experiment: Selectivity interaction (Reporter gene assay) EUB0000581a RXRA; parameters: recommended concentration 1 uM; conditions: reference bexarotene 1 uM, Selectivity number of off-targets 0.0, Selectivity number of targets 1.0, Source Knowledge inhouse
[16] = target: T1, Hepatocyte nuclear factor 4-alpha (Homo sapiens); experiment: Selectivity interaction (Reporter gene assay) EUB0000572aCl HNF4A; parameters: recommended concentration 3 uM
[17] = target: T2, Nuclear receptor subfamily 2 group C member 1 (Homo sapiens); experiment: Selectivity interaction (Reporter gene assay) EUB0000572aCl NR2C1; parameters: recommended concentration 3 uM; conditions: screened at recom. conc., Selectivity number of off-targets 2.0, Selectivity number of targets 5.0, Source Knowledge inhouse
[18] = target: Nuclear receptor subfamily 2 group E member 1 (Homo sapiens) (UniProt Q9Y466); experiment: Selectivity interaction (Reporter gene assay) EUB0000572aCl NR2E1; parameters: recommended concentration 3 uM; conditions: screened at recom. conc., Selectivity number of off-targets 2.0, Selectivity number of targets 5.0, Source Knowledge inhouse
[19] = target: Nuclear receptor subfamily 4immunitygroup A member 1 (Homo sapiens) (UniProt P22736); experiment: Selectivity interaction (Reporter gene assay) EUB0000572aCl NR4A1; parameters: recommended concentration 3 uM
[20] = target: Steroidogenic factor 1 (Homo sapiens) (UniProt Q13285); experiment: Selectivity interaction (Reporter gene assay) EUB0000572aCl NR5A1; parameters: recommended concentration 3 uM
[21] = target: T3, Alpha trans-inducing protein (Human alphaherpesvirus 1); experiment: Selectivity interaction (Reporter gene assay) EUB0000572aCl UL48; parameters: recommended concentration 3 uM
[22] = target: T4, Retinoic acid receptor RXR-alpha (Homo sapiens); experiment: Selectivity interaction (Reporter gene assay) EUB0000572aCl RXRA; parameters: recommended concentration 3 uM; conditions: reference bexarotene 1 uM, Selectivity number of off-targets 0.0, Selectivity number of targets 1.0, Source Knowledge inhouse
[23] = target: T1, Hepatocyte nuclear factor 4-alpha (Homo sapiens); experiment: Selectivity interaction (Reporter gene assay) EUB0000585a HNF4A; parameters: recommended concentration 1 uM
[24] = target: T2, Nuclear receptor subfamily 2 group C member 1 (Homo sapiens); experiment: Selectivity interaction (Reporter gene assay) EUB0000585a NR2C1; parameters: recommended concentration 1 uM
[25] = target: Nuclear receptor subfamily 2 group E member 1 (Homo sapiens) (UniProt Q9Y466); experiment: Selectivity interaction (Reporter gene assay) EUB0000585a NR2E1; parameters: recommended concentration 1 uM
[26] = target: Nuclear receptor subfamily 4immunitygroup A member 1 (Homo sapiens) (UniProt P22736); experiment: Selectivity interaction (Reporter gene assay) EUB0000585a NR4A1; parameters: recommended concentration 1 uM
[27] = target: Steroidogenic factor 1 (Homo sapiens) (UniProt Q13285); experiment: Selectivity interaction (Reporter gene assay) EUB0000585a NR5A1; parameters: recommended concentration 1 uM
[28] = target: T3, Alpha trans-inducing protein (Human alphaherpesvirus 1); experiment: Selectivity interaction (Reporter gene assay) EUB0000585a UL48; parameters: recommended concentration 1 uM
[29] = target: T4, Retinoic acid receptor RXR-alpha (Homo sapiens); experiment: Selectivity interaction (Reporter gene assay) EUB0000585a RXRA; parameters: recommended concentration 1 uM; conditions: reference bexarotene 1 uM, Selectivity number of off-targets 0.0, Selectivity number of targets 1.0, Source Knowledge inhouse

Nuclear receptor subfamily 2 group E member 1 (Homo sapiens), sequence (Q9Y466 whole entry): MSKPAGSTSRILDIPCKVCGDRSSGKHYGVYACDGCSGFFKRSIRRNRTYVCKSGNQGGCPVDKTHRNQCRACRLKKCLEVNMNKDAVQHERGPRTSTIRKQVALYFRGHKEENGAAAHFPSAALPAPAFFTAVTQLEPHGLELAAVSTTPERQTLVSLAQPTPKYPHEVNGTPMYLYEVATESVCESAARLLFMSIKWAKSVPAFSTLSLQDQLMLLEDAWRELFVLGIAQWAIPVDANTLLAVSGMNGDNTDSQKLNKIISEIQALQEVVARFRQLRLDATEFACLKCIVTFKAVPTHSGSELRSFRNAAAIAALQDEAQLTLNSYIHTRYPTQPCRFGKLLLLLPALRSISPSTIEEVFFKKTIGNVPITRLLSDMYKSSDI
Steroidogenic factor 1 (Homo sapiens), sequence (Q13285 whole entry): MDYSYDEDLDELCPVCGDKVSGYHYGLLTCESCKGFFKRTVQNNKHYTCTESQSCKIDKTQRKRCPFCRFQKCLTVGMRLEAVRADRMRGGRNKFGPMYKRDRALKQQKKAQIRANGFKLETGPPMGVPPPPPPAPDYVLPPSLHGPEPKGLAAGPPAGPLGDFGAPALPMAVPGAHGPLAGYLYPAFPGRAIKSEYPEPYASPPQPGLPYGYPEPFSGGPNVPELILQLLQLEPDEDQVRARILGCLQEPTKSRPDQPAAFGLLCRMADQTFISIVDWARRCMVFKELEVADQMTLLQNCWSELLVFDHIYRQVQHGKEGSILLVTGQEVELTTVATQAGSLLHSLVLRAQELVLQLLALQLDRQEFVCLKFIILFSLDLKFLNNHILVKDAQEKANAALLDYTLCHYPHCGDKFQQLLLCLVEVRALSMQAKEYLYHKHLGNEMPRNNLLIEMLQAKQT
Nuclear receptor subfamily 4immunitygroup A member 1 (Homo sapiens), sequence (P22736 whole entry): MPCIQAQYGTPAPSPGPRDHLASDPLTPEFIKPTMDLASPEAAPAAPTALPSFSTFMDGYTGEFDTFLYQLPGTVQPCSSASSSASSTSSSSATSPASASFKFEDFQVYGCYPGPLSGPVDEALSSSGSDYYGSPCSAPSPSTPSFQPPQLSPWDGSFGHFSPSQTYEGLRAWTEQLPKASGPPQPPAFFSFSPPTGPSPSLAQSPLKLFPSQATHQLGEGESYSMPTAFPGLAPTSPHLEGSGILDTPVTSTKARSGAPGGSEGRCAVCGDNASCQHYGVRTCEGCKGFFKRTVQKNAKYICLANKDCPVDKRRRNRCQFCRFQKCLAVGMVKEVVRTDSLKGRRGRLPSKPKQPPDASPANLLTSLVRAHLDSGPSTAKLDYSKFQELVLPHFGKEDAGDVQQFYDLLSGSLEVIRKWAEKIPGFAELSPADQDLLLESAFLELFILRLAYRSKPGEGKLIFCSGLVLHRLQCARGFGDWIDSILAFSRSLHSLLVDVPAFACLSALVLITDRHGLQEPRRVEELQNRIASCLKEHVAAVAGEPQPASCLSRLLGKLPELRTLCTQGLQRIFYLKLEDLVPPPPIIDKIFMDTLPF
T3 sequence (A0A5J6DW59 as listed by the source): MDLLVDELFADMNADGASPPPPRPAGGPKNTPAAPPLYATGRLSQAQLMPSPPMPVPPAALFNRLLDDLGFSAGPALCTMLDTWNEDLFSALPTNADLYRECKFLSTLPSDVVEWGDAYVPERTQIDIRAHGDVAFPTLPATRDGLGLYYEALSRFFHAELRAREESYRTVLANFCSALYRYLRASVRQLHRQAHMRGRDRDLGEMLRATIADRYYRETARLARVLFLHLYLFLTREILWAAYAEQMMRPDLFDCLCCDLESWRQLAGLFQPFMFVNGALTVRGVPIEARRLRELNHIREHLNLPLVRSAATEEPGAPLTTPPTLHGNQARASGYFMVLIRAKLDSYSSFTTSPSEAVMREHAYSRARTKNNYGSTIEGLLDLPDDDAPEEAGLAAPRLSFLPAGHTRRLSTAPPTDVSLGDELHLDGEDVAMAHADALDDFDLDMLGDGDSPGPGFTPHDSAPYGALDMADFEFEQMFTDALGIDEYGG

Compound: CCOP(=O)(OCC)C(=Cc1cc(C(C)(C)C)c(O)c(C(C)(C)C)c1)P(=O)(OCC)OCC
- Remaining activity [1]: 0.935
- Fold activation [2]: 1.37
- Remaining activity [3]: 0.795
- Remaining activity [4]: 0.959
- Fold activation [5]: 1.01
- P-value [6]: 0.0136
- Relative activation [7]: 0.581%

- Fold activation [8]: 3.39
- Fold activation [9]: 1.11
- Fold activation [10]: 1.13
- Remaining activity [11]: 0.846
- Fold activation [12]: 1.08
- Fold activation [13]: 1.08
- P-value [14]: 0.0017
- Relative activation [15]: 0.86%
Compound: CC(C)c1ccc(CC(=O)N2CCC[C@@H](c3cccc(OC(C)(C)C(=O)O)c3)C2)cc1

- Fold activation [16]: 1.18
- Fold activation [17]: 1.98
- Fold activation [18]: 1.82
- Fold activation [19]: 1.4
- Fold activation [20]: 1.13
- P-value [21]: 2.13e-05
- Relative activation [22]: 0.674%
Compound: O=C(O)Cc1cccc(OCCCN(Cc2cccc(C(F)(F)F)c2Cl)CC(c2ccccc2)c2ccccc2)c1

- Remaining activity [23]: 0.623
- Remaining activity [24]: 0.638
- Remaining activity [25]: 0.57
- Remaining activity [26]: 0.496
- Remaining activity [27]: 0.672
- P-value [28]: 0.00063
- Relative activation [29]: 0.666%
Compound: Cc1cc(OCC(=O)O)cc(C)c1Cc1ccc(O)c(C(C)C)c1
